Measured values reported in ChEMBL document CHEMBL3046595, “Novel furoxan NO-donor pemetrexed derivatives: design, synthesis, and preliminary biological evaluation” (2009).

Legend:
Type in all cases: functional
[1] = test system: A549; test: Cytotoxicity against Homo sapiens (human) A549 cells at 1 x 10^-6 mol/L after 48 hr by MTT assay; conditions: A549, 48 h
[2] = test system: A549; test: Cytotoxicity against Homo sapiens (human) A549 cells at 10 x 10^-6 mol/L after 48 hr by MTT assay; conditions: A549, 48 h
[3] = test system: A549; test: Cytotoxicity against Homo sapiens (human) A549 cells at 0.1 x 10^-6 mol/L after 48 hr by MTT assay; conditions: A549, 48 h
[4] = test system: SMMC-7721; test: Cytotoxicity against Homo sapiens (human) SMMC7721 cells at 10 x 10^-6 mol/L after 48 hr by MTT assay; conditions: SMMC-7721, 48 h
[5] = test system: SMMC-7721; test: Cytotoxicity against Homo sapiens (human) SMMC7721 cells at 1 x 10^-6 mol/L after 48 hr by MTT assay; conditions: SMMC-7721, 48 h
[6] = test system: HL-60; test: Cytotoxicity against Homo sapiens (human) HL60 cells at 10 x 10^-6 mol/L after 48 hr by MTT assay; conditions: HL-60, 48 h
[7] = test system: SMMC-7721; test: Cytotoxicity against Homo sapiens (human) SMMC7721 cells at 0.1 x 10^-6 mol/L after 48 hr by MTT assay; conditions: SMMC-7721, 48 h
[8] = test system: HL-60; test: Cytotoxicity against Homo sapiens (human) HL60 cells at 1 x 10^-6 mol/L after 48 hr by MTT assay; conditions: HL-60, 48 h
[9] = test system: HL-60; test: Cytotoxicity against Homo sapiens (human) HL60 cells at 0.1 x 10^-6 mol/L after 48 hr by MTT assay; conditions: HL-60, 48 h
[10] = test system: BGC-823; test: Cytotoxicity against Homo sapiens (human) BGC823 cells at 10 x 10^-6 mol/L after 48 hr by MTT assay; conditions: BGC-823, 48 h
[11] = test system: BGC-823; test: Cytotoxicity against Homo sapiens (human) BGC823 cells at 0.1 x 10^-6 mol/L after 48 hr by MTT assay; conditions: BGC-823, 48 h
[12] = test system: BGC-823; test: Cytotoxicity against Homo sapiens (human) BGC823 cells at 1 x 10^-6 mol/L after 48 hr by MTT assay; conditions: BGC-823, 48 h

Compound | inhibition at 1 µM [1] | inhibition at 10 µM [2] | inhibition at 0.1 µM [3] | inhibition at 10 µM [4] | inhibition at 1 µM [5] | inhibition at 10 µM [6] | inhibition at 0.1 µM [7] | inhibition at 1 µM [8] | inhibition at 0.1 µM [9] | inhibition at 10 µM [10] | inhibition at 0.1 µM [11] | inhibition at 1 µM [12]
CCOC(=O)[C@H](CCC(=O)OCCCCCOc1no[n+]([O-])c1S(=O)(=O)c1ccccc1)NC(=O)c1ccc(CCc2c[nH]c3[nH]c(N)nc(=O)c23)cc1 | 50% | < 50% | < 50% | < 50% | < 50% | < 50% | < 50% | > 80% | > 80% | < 50% | 50% | 50%
CCOC(=O)[C@H](CCC(=O)OCC#CCOc1no[n+]([O-])c1S(=O)(=O)c1ccccc1)NC(=O)c1ccc(CCc2c[nH]c3[nH]c(N)nc(=O)c23)cc1 | < 50% | < 50% | < 50% | < 50% | 50% | 50% | < 50% | > 80% | < 50% | – | < 50% | 50%
CCOC(=O)[C@H](CCC(=O)OC(C)COc1no[n+]([O-])c1S(=O)(=O)c1ccccc1)NC(=O)c1ccc(CCc2c[nH]c3[nH]c(N)nc(=O)c23)cc1 (stereo partly drawn) | < 50% | < 50% | < 50% | < 50% | < 50% | < 50% | < 50% | > 80% | > 80% | < 50% | < 50% | > 80%
Nc1nc2[nH]cc(CCc3ccc(C(=O)N[C@@H](CCC(=O)O)C(=O)O)cc3)c2c(=O)[nH]1 [PEMETREXED DISODIUM] | < 50% | < 50% | < 50% | < 50% | < 50% | > 80% | < 50% | > 80% | 50% | 50% | < 50% | < 50%
CCOC(=O)[C@H](CCC(=O)OCCCCCCOc1no[n+]([O-])c1S(=O)(=O)c1ccccc1)NC(=O)c1ccc(CCc2c[nH]c3[nH]c(N)nc(=O)c23)cc1 | < 50% | < 50% | < 50% | < 50% | > 80% | < 50% | < 50% | > 80% | < 50% | < 50% | < 50% | 50%
CCOC(=O)[C@H](CCC(=O)OCCCCOc1no[n+]([O-])c1S(=O)(=O)c1ccccc1)NC(=O)c1ccc(CCc2c[nH]c3[nH]c(N)nc(=O)c23)cc1 | < 50% | < 50% | < 50% | < 50% | > 80% | < 50% | < 50% | 50% | 50% | < 50% | < 50% | > 80%
CCOC(=O)[C@H](CCC(=O)OCCCOc1no[n+]([O-])c1S(=O)(=O)c1ccccc1)NC(=O)c1ccc(CCc2c[nH]c3[nH]c(N)nc(=O)c23)cc1 | < 50% | < 50% | < 50% | < 50% | < 50% | < 50% | < 50% | 50% | < 50% | < 50% | < 50% | < 50%
CCOC(=O)[C@H](CCC(=O)OCCOCCOc1no[n+]([O-])c1S(=O)(=O)c1ccccc1)NC(=O)c1ccc(CCc2c[nH]c3[nH]c(N)nc(=O)c23)cc1 | < 50% | – | < 50% | – | < 50% | – | < 50% | > 80% | < 50% | – | < 50% | < 50%
CCOC(=O)[C@H](CCC(=O)OCCOc1no[n+]([O-])c1S(=O)(=O)c1ccccc1)NC(=O)c1ccc(CCc2c[nH]c3[nH]c(N)nc(=O)c23)cc1 | < 50% | < 50% | < 50% | < 50% | < 50% | < 50% | < 50% | 50% | < 50% | < 50% | < 50% | < 50%
